# From ChEMBL document CHEMBL4725310, “Orally bioavailable HCV NS5A inhibitors of unsymmetrical structural class” (Bioorg Med Chem Lett, 2020)
# pEC50: −log10 of the molar value.
# Experiments:
# [1] = Solubility of compound in JP 1st fluid at pH 1.2; format: physicochemical
# Nonstructural protein 5A [2] = target: T1, Nonstructural protein 5A (Hepatitis C virus, UniProt Q5L478); experiment: Inhibition of Hepatitis C virus 1a NS5A; parameters: species or system Hepatitis C virus subtype 1a
# T1 sequence (Q5L478 whole entry): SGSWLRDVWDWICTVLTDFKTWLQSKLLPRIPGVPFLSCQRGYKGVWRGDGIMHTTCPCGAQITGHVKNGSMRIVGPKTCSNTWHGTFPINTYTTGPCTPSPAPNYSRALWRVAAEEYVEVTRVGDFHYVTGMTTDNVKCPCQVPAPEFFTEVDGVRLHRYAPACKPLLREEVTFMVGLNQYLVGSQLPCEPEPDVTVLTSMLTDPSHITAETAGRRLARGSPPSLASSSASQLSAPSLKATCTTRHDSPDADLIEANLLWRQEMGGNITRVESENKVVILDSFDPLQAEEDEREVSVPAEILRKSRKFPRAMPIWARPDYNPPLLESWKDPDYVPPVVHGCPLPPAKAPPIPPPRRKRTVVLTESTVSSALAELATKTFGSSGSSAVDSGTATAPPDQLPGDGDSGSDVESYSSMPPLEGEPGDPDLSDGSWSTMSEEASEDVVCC
# Nonstructural protein 5A [3] = target: T1, Nonstructural protein 5A; experiment: Inhibition of Hepatitis C virus 1b NS5A; parameters: species or system Hepatitis C virus subtype 1b
# [4] = Oral bioavailability in Sprague-Dawley rat at 3 mg/kg; format: ADME, organism-based; conditions: in vivo
# [5] = Apparent permeability of compound in human Caco-2 cells; format: ADME, cell-based
# [6] = Inhibition of Hepatitis C virus 1a NS5A Q30K mutant; parameters: species or system Hepatitis C virus subtype 1a
# Nonstructural protein 5A [7] = target: T1, Nonstructural protein 5A; experiment: Inhibition of Hepatitis C virus 3a NS5A; parameters: species or system Hepatitis C virus subtype 3a
# Nonstructural protein 5A [8] = target: T1, Nonstructural protein 5A; experiment: Inhibition of Hepatitis C virus 1a NS5A Q30R mutant; parameters: species or system Hepatitis C virus subtype 1a
# Nonstructural protein 5A [9] = target: T1, Nonstructural protein 5A; experiment: Inhibition of Hepatitis C virus 2a NS5A; parameters: species or system Hepatitis C virus subtype 2a
# Nonstructural protein 5A [10] = target: Nonstructural protein 5A (Hepatitis C virus, UniProt Q5L478, Q30E); experiment: Inhibition of Hepatitis C virus 1a NS5A Q30E mutant; parameters: species or system Hepatitis C virus subtype 1a
# Nonstructural protein 5A [11] = target: T1, Nonstructural protein 5A; experiment: Inhibition of Hepatitis C virus 1a H77 NS5A; parameters: species or system Hepatitis C virus subtype 1a
SMILES,solubility [1],pEC50 (Nonstructural protein 5A [2]),pEC50 (Nonstructural protein 5A [3]),bioavailability [4],Papp [5],pEC50 [6],pEC50 (Nonstructural protein 5A [7]),pEC50 (Nonstructural protein 5A [8]),pEC50 (Nonstructural protein 5A [9]),pEC50 (Nonstructural protein 5A [10]),pEC50 (Nonstructural protein 5A [11])
CCCCCOC(=O)N[C@@H]1CCN(C(=O)N[C@@H](C(=O)N2CCC[C@H]2c2nc(-c3ccc([C@H]4CC[C@H](NC(=O)c5cnccn5)CC4)cc3)c[nH]2)c2ccccc2)C1,197 µM,9.01,11.25,11%,3 ×10⁻⁶ cm/s,,,,,,
CCCC#CCOC(=O)N[C@@H]1CCN(C(=O)N[C@@H](C(=O)N2CCC[C@H]2c2nc(-c3ccc([C@H]4CC[C@H](NC(=O)c5cnccn5)CC4)cc3)c[nH]2)c2ccccc2)C1,135 µM,9.57,10.89,,1.7 ×10⁻⁶ cm/s,,,,,,
CC#CCOC(=O)N[C@@H]1CCN(C(=O)N[C@@H](C(=O)N2CCC[C@H]2c2nc(-c3ccc([C@H]4CC[C@H](NC(=O)c5cnccn5)CC4)cc3)c[nH]2)c2ccccc2)C1,462 µM,8.68,10.55,,2.1 ×10⁻⁶ cm/s,,,,,,
CC(C)C#CCOC(=O)N[C@@H]1CCN(C(=O)N[C@@H](C(=O)N2CCC[C@H]2c2nc(-c3ccc([C@H]4CC[C@H](NC(=O)c5cnc(CO)cn5)CC4)cc3)c[nH]2)c2ccccc2)C1,190 µM,9.92,10.77,18%,1.4 ×10⁻⁶ cm/s,,,,,,
CC(C)(C)C#CCOC(=O)N[C@@H]1CCN(C(=O)N[C@@H](C(=O)N2CCC[C@H]2c2nc(-c3ccc([C@H]4CC[C@H](NC(=O)c5cnc(CO)cn5)CC4)cc3)c[nH]2)c2ccccc2)C1,132 µM,10.23,10.89,32%,1 ×10⁻⁶ cm/s,7.77,> 11.00,9.74,> 11.00,7.82,
CCC#CCOC(=O)N[C@@H]1CCN(C(=O)N[C@@H](C(=O)N2CCC[C@H]2c2nc(-c3ccc([C@H]4CC[C@H](NC(=O)c5cnccn5)CC4)cc3)c[nH]2)c2ccccc2)C1,336 µM,9.41,10.74,,3.1 ×10⁻⁶ cm/s,,,,,,
CC(C)(C)C#CCOC(=O)N[C@@H]1CCN(C(=O)N[C@@H](C(=O)N2CCC[C@H]2c2nc(-c3ccc([C@H]4CC[C@H](NC(=O)c5cnccn5)CC4)cc3)c[nH]2)c2ccccc2)C1,142 µM,9.89,> 11.00,5.3%,1.1 ×10⁻⁶ cm/s,,,,,,
CC(C)C#CCOC(=O)N[C@@H]1CCN(C(=O)N[C@@H](C(=O)N2CCC[C@H]2c2nc(-c3ccc([C@H]4CC[C@H](NC(=O)c5cnccn5)CC4)cc3)c[nH]2)c2ccccc2)C1,246 µM,9.74,> 11.00,10%,1.6 ×10⁻⁶ cm/s,,,,,,
COC1CCC(C(=O)N[C@H]2CC[C@H](c3ccc(-c4c[nH]c([C@@H]5CCCN5C(=O)[C@H](NC(=O)N5CC[C@@H](NC(=O)OCC6CCCCC6)C5)c5ccccc5)n4)cc3)CC2)CC1 (stereo not given in full),108 µM,10.41,10.80,,0.23 ×10⁻⁶ cm/s,,,,,,
O=C(N[C@@H]1CCN(C(=O)N[C@@H](C(=O)N2CCC[C@H]2c2nc(-c3ccc([C@H]4CC[C@H](NC(=O)c5cnccn5)CC4)cc3)c[nH]2)c2ccccc2)C1)OCC1CCCCC1,76 µM,9.46,11.19,4.9%,0.85 ×10⁻⁶ cm/s,,,,,,
COC1CCC(C(=O)N[C@H]2CC[C@H](c3ccc(-c4c[nH]c([C@@H]5CCCN5C(=O)[C@H](NC(=O)N5CC[C@@H](NC(=O)OCc6ccccc6)C5)c5ccccc5)n4)cc3)CC2)CC1 (stereo not given in full),193 µM,9.77,10.72,1.4%,< 0.1 ×10⁻⁶ cm/s,,,,,,
COC1CCN(C(=O)N[C@H]2CC[C@H](c3ccc(-c4c[nH]c([C@@H]5CCCN5C(=O)[C@H](NC(=O)N5CC[C@@H](NC(=O)OCc6ccccc6)C5)c5ccccc5)n4)cc3)CC2)CC1,222 µM,9.82,10.39,,< 0.1 ×10⁻⁶ cm/s,,,,,,
CC#CCCOC(=O)N[C@@H]1CCN(C(=O)N[C@@H](C(=O)N2CCC[C@H]2c2nc(-c3ccc([C@H]4CC[C@H](NC(=O)c5cnccn5)CC4)cc3)c[nH]2)c2ccccc2)C1,352 µM,8.47,> 11.00,,2.1 ×10⁻⁶ cm/s,,,,,,
COC(=O)N[C@H](C(=O)N1CCC[C@H]1c1ncc(-c2ccc(-c3ccc(-c4cnc([C@@H]5CCCN5C(=O)[C@@H](NC(=O)OC)C(C)C)[nH]4)cc3)cc2)[nH]1)C(C)C [DACLATASVIR],,,,,,5.91,9.84,7.21,10.15,5.90,10.30
